Values after ≈ are worked out from the molar mass of the structure shown. Read-outs that look alike come from different tables or passages of the source.
Legend:
[1] = test system: T. versicolor (white rot fungi); test: agar dilution plate method, wood rot fungi (MIC, IC50, percent retardation); assay type: cell-based; settings: for MIC: Trametes versicolor
[2] = test system: G. trabeum (brown rot fungi); test: as above; assay type: cell-based; settings: for MIC: Gloeophyllum trabeum
[3] = test system: P. placenta (brown rot fungi); test: as above; assay type: cell-based
[4] = test system: C. globosum (soft rot decay fungi); test: as above; assay type: cell-based; settings: for MIC: Chaetomium globosum; for C. globosum IC50 / IC50 C. globosum: Table2D curve fitting; for MIC C. globosum: Table 8; for MIC C. globosum / IC50 C. globosum: ppm of amine oxide or didecyldimethyl ammonium chloride
[5] = 20° C., cited from earlier work; for Solubility in Water^b: Material Safety Data Sheet
[6] = amine oxide alone, 100% growth retardation, read-out: MIC (ppm of amine oxides) T. versicolor
[7] = amine oxide alone, 100% growth retardation, read-out: MIC (ppm of amine oxides) G. trabeum
[8] = amine oxide alone, 100% growth retardation, read-out: MIC (ppm of amine oxides) P. placenta
[9] = amine oxide alone, 100% growth retardation, read-out: MIC (ppm of amine oxides) C. globosum
[10] = amine oxide alone, 100% growth retardation
[11] = azole alone, read-out: T. versicolor MIC
[12] = azole alone, Table2D curve fitting
[13] = azole alone, read-out: G. trabeum MIC
[14] = azole alone, read-out: P. placenta MIC
[15] = azole alone, read-out: C. globosum MIC
[16] = Table 8, ppm of amine oxide or didecyldimethyl ammonium chloride
[17] = ppm of amine oxide or didecyldimethyl ammonium chloride, Table2D curve fitting

CCCCCCCCCCCCCCCCCC[N+](C)(C)[O-] [Octadecyl-DMAO, octadecyl dimethylamine oxide]
MIC [1, 6]: > 1000 µg/mL
Qa, concentration of amine oxide alone required to yield 100% retardation, T. versicolor ([1]; amine oxide alone): 1000 ppm
MIC [2, 7]: > 1000 µg/mL
Qa, concentration of amine oxide alone required to yield 100% retardation, G. trabeum ([2]; amine oxide alone): 1000 ppm
Qa, concentration of amine oxide alone required to yield 100% retardation, P. placenta ([3]; amine oxide alone): 1000 ppm
MIC [3, 8]: > 1000 µg/mL
MIC [4, 9]: > 1000 µg/mL

CCCCCCCC[N+](C)(C)[O-] [Octyldimethylamine oxide, octyl dimethylamine oxide]
MIC [1, 6]: 750 µg/mL (≈ 4.33 mM)
Qa, concentration of amine oxide alone required to yield 100% retardation, T. versicolor ([1]; amine oxide alone): 750 ppm
MIC [2, 7]: 1000 µg/mL (≈ 5.77 mM)
Qa, concentration of amine oxide alone required to yield 100% retardation, G. trabeum ([2]; amine oxide alone): 1000 ppm
Qa, concentration of amine oxide alone required to yield 100% retardation, P. placenta ([3]; amine oxide alone): 1000 ppm
MIC [3, 8]: 1000 µg/mL (≈ 5.77 mM)
MIC [4, 9]: > 1000 µg/mL

CCCCCCCC/C=C\CCCCCCCC[N+](C)(C)[O-] [Oleyl-DMAO]
MIC (ppm of amine oxides) T. versicolor [1, 10]: >1000 ppm
MIC (ppm of amine oxides) G. trabeum [2, 10]: >1000 ppm
MIC (ppm of amine oxides) P. placenta [3, 10]: >1000 ppm
MIC (ppm of amine oxides) C. globosum [4, 10]: >1000 ppm

CCCC1COC(Cn2cncn2)(c2ccc(Cl)cc2Cl)O1 (stereo not drawn) [Propiconazole, propiconazole]
MIC [1, 11]: 50 µg/mL (≈ 0.146 mM)
Qb, concentration of azole alone required to yield 100% retardation, T. versicolor ([1]; azole alone): 50 ppm
T. versicolor IC50 [1, 12]: 3 ppm
MIC [2, 13]: > 50 µg/mL
Qb, concentration of azole alone required to yield 100% retardation, G. trabeum ([2]; azole alone): 50 ppm
G. trabeum IC50 [2, 12]: 0.9 ppm
Qb, concentration of azole alone required to yield 100% retardation, P. placenta ([3]; azole alone): 50 ppm
P. placenta IC50 [3, 12]: 0.7 ppm
MIC [3, 14]: 50 µg/mL (≈ 0.146 mM)
MIC [4, 15]: > 50 µg/mL
C. globosum IC50 ([4]; azole alone): 11.7 ppm

CC(C)(C)C(O)(CCc1ccc(Cl)cc1)Cn1cncn1 (stereo not drawn) [Tebuconazole, tebuconazole]
MIC [1, 11]: 25 µg/mL (≈ 0.0812 mM)
Qb, concentration of azole alone required to yield 100% retardation, T. versicolor ([1]; azole alone): 25 ppm
T. versicolor IC50 [1, 12]: 2.3 ppm
MIC [2, 13]: 10 µg/mL (≈ 0.0325 mM)
Qb, concentration of azole alone required to yield 100% retardation, G. trabeum ([2]; azole alone): 10 ppm
G. trabeum IC50 [2, 12]: <0.1 ppm
Qb, concentration of azole alone required to yield 100% retardation, P. placenta ([3]; azole alone): 50 ppm
P. placenta IC50 [3, 12]: 1.7 ppm
MIC [3, 14]: 50 µg/mL (≈ 0.162 mM)
MIC [4, 15]: 50 to 500 µg/mL (≈ 0.162 to 1.62 mM)
C. globosum IC50 ([4]; azole alone): 34.5 ppm
Solubility in Water^b [5]: 32 ppm at 20 °C

CCCCCCCCCCCCCC[N+](C)(C)[O-] [Tetradecyl-DMAO, tetradecyl dimethylamine oxide]
MIC [1, 6]: > 1000 µg/mL
Qa, concentration of amine oxide alone required to yield 100% retardation, T. versicolor ([1]; amine oxide alone): 1000 ppm
MIC [2, 7]: > 1000 µg/mL
Qa, concentration of amine oxide alone required to yield 100% retardation, G. trabeum ([2]; amine oxide alone): 1000 ppm
Qa, concentration of amine oxide alone required to yield 100% retardation, P. placenta ([3]; amine oxide alone): 1000 ppm
MIC [3, 8]: > 1000 µg/mL
MIC [4, 9]: > 1000 µg/mL

CC(C)(C)C(=O)C(Oc1ccc(Cl)cc1)n1cncn1 (stereo not drawn) [Triadimefon, triadimefon]
Solubility in Water^b [5]: 64 ppm at 20 °C
Solubility in water^a ([5]; The Pesticide Manual, 11th Edition): 64 ppm/20 °C

branched alkyl (C10-C14) dimethylamine oxide [Branched alkyl (C10-C14) DMAO]
IC50 T. versicolor [1]: 84 ppm
MIC (ppm of amine oxides) T. versicolor [1]: 500 ppm
MIC T. versicolor [1]: 500 ppm
Qa, concentration of amine oxide alone required to yield 100% retardation, T. versicolor [1]: 500 ppm
IC50 G. trabeum [2]: 44 ppm
MIC (ppm of amine oxides) G. trabeum [2]: 250 ppm
MIC G. trabeum [2]: 250 ppm
Qa, concentration of amine oxide alone required to yield 100% retardation, G. trabeum [2]: 250 ppm
IC50 P. placenta [3]: 89 ppm
MIC (ppm of amine oxides) P. placenta [3]: 500 ppm
MIC P. placenta [3]: 500 ppm
Qa, concentration of amine oxide alone required to yield 100% retardation, P. placenta [3]: 500 ppm
MIC C. globosum [4]: >1000 ppm
MIC (ppm of amine oxides) C. globosum [4, 10]: >1000 ppm
IC50 C. globosum [4]: 153 ppm

coco-alkyl (C12-C16) dimethylamine oxide [Coco-DMAO]
MIC T. versicolor [1, 16]: 750 ppm
Qa, concentration of amine oxide alone required to yield 100% retardation, T. versicolor ([1]; amine oxide alone): 750 ppm
MIC (ppm of amine oxides) T. versicolor [1, 10]: 750 ppm
IC50 T. versicolor [1, 17]: 51 ppm
MIC G. trabeum [2, 16]: 500 ppm
Qa, concentration of amine oxide alone required to yield 100% retardation, G. trabeum ([2]; amine oxide alone): 500 ppm
MIC (ppm of amine oxides) G. trabeum [2, 10]: 500 ppm
IC50 G. trabeum [2, 17]: 9 ppm
MIC P. placenta [3, 16]: 1000 ppm
MIC (ppm of amine oxides) P. placenta [3, 10]: 500-1000 ppm
IC50 P. placenta [3, 17]: 5 ppm
MIC C. globosum [4]: >1000 ppm
MIC (ppm of amine oxides) C. globosum [4, 10]: >1000 ppm
IC50 C. globosum [4]: 47 ppm

coco-alkyl-di(hydroxyethyl)amine oxide [Coco-di(hydroxyethyl)-amine oxide]
MIC (ppm of amine oxides) T. versicolor [1, 10]: 500 ppm
MIC (ppm of amine oxides) G. trabeum [2, 10]: 500 ppm
MIC (ppm of amine oxides) P. placenta [3, 10]: 500 ppm
MIC (ppm of amine oxides) C. globosum [4, 10]: >1000 ppm

tallow-alkyl-di(hydroxyethyl)amine oxide [Tallow-di(hydroxyethyl)-amine oxide]
MIC (ppm of amine oxides) T. versicolor [1, 10]: >1000 ppm
MIC (ppm of amine oxides) G. trabeum [2, 10]: >1000 ppm
MIC (ppm of amine oxides) P. placenta [3, 10]: >1000 ppm
MIC (ppm of amine oxides) C. globosum [4, 10]: >1000 ppm

— patent publication US6527981B1, “Azole/amine oxide preservatives” (Lonza Inc., priority 1999, dated 2003)
